Data from PMC12750218 (ACS Omega, 2025).

Assays:
[1] = test system: rat plasma proteins; parameters: method as in public assessment report of Otezla (CHMP, 2014); conditions: 0.25 to 2.5 μg/mL, ref public assessment report of Otezla (CHMP, 2014); cited from earlier work
[2] = test system: mouse plasma proteins; parameters: method as in public assessment report of Otezla (CHMP, 2014); conditions: 0.25 to 2.5 μg/mL, ref public assessment report of Otezla (CHMP, 2014); cited from earlier work
[3] = test system: human plasma proteins; parameters: method as in public assessment report of Otezla (CHMP, 2014); conditions: 0.25 to 2.5 μg/mL, ref public assessment report of Otezla (CHMP, 2014); cited from earlier work
[4] = test system: monkey plasma proteins; parameters: method as in public assessment report of Otezla (CHMP, 2014); conditions: 0.25 to 2.5 μg/mL, ref public assessment report of Otezla (CHMP, 2014); cited from earlier work
[5] = test system: rabbit plasma proteins; parameters: method as in public assessment report of Otezla (CHMP, 2014); conditions: 0.25 to 2.5 μg/mL, ref public assessment report of Otezla (CHMP, 2014); cited from earlier work
[6] = test system: human α1-acid glycoprotein (AGP); assay: Ultracentrifugation, free APR in supernatant by HPLC-UV; conditions: isolated human α1-acid glycoprotein (AGP) in PBS, 5 μM APR, 5-15 μM AGP, PBS pH 7.4, 20 °C, 1:1 stoichiometry, K in L mol^–1, read-out: binding (stability) constant log K (converted)
Description: The interaction of S-APR and R-APR with AGP was also examined with ultracentrifugation, where increasing protein levels (final concentrations: 0, 5, 10, and 15 μM) were added to a standard amount of the ligand (5 μM) in PBS (pH 7.4). These samples (600 μL) were centrifuged for 16 h at 170,000g and 20 °C employing an Optima MAX-XP ultracentrifuge (Beckman Coulter, Brea, CA, USA). Using these experimental conditions, the protein is slowly sedimented without the disruption of ligand–protein interactions. − , Thereafter, the unbound free fraction of APR was directly quantified in the protein-free supernatants by the HPLC-UV method (see the next paragraph). Binding (association) constants (K; unit: L mol^–1) of APR–AGP complexes were calculated assuming a 1:1 stoichiometry of complex formation: , K=([APR−AGP])/([APR]×[AGP]) 3 where [APR] is the molar concentration of the unbound free ligand, [AGP] is the molar concentration of the unbound free protein, and [APR–AGP] indicates the molar concentration of the ligand–protein complex.
The APR concentration after centrifugation was measured by a validated HPLC-UV method using an XTERRA RP18 column (5 μm, 4.6 × 100 mm), maintained at 40 °C. Isocratic elution was applied using acetonitrile and water containing 0.5% formic acid (60:40, v/v) as the mobile phase. […] The concentration was determined by using the external standard method. […]

[7] = test system: human serum albumin (HSA); parameters: method as in number not printed (authors' recent work, Dombi et al., 2023); conditions: binding to HSA; ref number not printed (authors' recent work, Dombi et al., 2023); cited from earlier work
[8] = test system: human α1-acid glycoprotein (AGP); assay: HPLC on chiral AGP column (immobilized protein): retention factors and estimated bound percentage; assay type: binding; conditions: for Bound percentage (b%): from ln k extrapolated to zero organic modifier, b%=100×k/(1+k); for retention factor (k): chiral AGP column, 2-propanol modifier
Description: In this study, AGP was used as the chiral selector. […]
HPLC columns with immobilized proteins can also be used to estimate the percentage of the drug bound to the protein. […] Extrapolating this relationship to a zero organic modifier approximates physiological conditions. The intercept of the regression lines was used to calculate protein binding percentages based on eq .
LC-UV analysis was conducted on an Agilent 1100 HPLC system that included a quaternary pump, an autosampler, a column compartment, and a DAD detector (Agilent Technologies, Waldbronn, Germany). Data analysis was performed with ChemStation software (version: B04.03-SP2). UV detection was set at 230 nm. Stock solutions were prepared in methanol at a concentration of 1 mg/mL (2.17 mM), and further dilutions were made by using deionized water. Samples were prepared to contain 0.1 mg/mL (0.217 mM) R-APR and 0.2 mg/mL (0.434 mM) S-APR, with each analysis performed using a 5 μL injection volume. […] Chromatographic data were evaluated according to standard calculation methods. The retention factor (k) for each enantiomer was determined using the following equation: k=(tr−t0)/t0 1 where tr denotes the retention time of the target enantiomer and t0 represents the column dead time.
Additionally, the retention factor was used to estimate the percentage of protein-bound analytes according to the following formula: b%=100×k/(1+k) 2 Three parallel measurements were performed for each case.

[9] = test system: human α1-acid glycoprotein (AGP); assay: Isothermal titration calorimetry of AGP with APR enantiomers; assay type: binding; conditions: ITC, aqueous 5% DMSO, 25 °C; for Standard entropy (ΔS) of binding: calculated from ΔG=ΔH−TΔS; for Standard Gibbs free energy (ΔG) of binding: calculated from −RTlnK
Description: The working cell contained 1427.5 μL of AGP solution, which was titrated with 5 μL aliquots of the APR solution from the syringe, up to a total volume of 275 μL. The reference cell was filled with aqueous 5% DMSO. Each injection lasted 10 s, with a 1000 s interval between injections. The stirring speed was maintained at 307 rpm.
The resulting isotherm was next fitted with the nonlinear multiparameter regression method (Origin 7.0 MicroCal) using the One Set of Sites model, which assumes that a receptor (macromolecule) has a single class of multiple independent binding sites for a ligand. In this model, each site has the same affinity and thermodynamics for the ligand, and the binding of one ligand molecule to a site is independent of the binding events at other sites. […] The standard Gibbs free energy of binding ΔG and standard entropy of binding ΔS can be next calculated using the basic thermodynamic relationship ΔG=ΔH−TΔS=−RTln⁡K where T is temperature and R is the gas constant.

[10] = 25 °C, sodium phosphate buffer 10 mM pH 7.0, 95% in eluent
[11] = ammonium acetate buffer 10 mM pH 7.0, 85% in eluent
[12] = ammonium acetate buffer 10 mM pH 7.0, 90% in eluent
[13] = ammonium acetate buffer 10 mM pH 7.0, 92.5% in eluent
[14] = ammonium acetate buffer 10 mM pH 7.0, 95% in eluent
[15] = ammonium bicarbonate buffer 10 mM pH 7.0, 85% in eluent
[16] = ammonium bicarbonate buffer 10 mM pH 7.0, 90% in eluent
[17] = ammonium bicarbonate buffer 10 mM pH 7.0, 92.5% in eluent
[18] = ammonium bicarbonate buffer 10 mM pH 7.0, 95% in eluent
[19] = sodium phosphate buffer 10 mM pH 7.0, 85% in eluent
[20] = sodium phosphate buffer 10 mM pH 7.0, 90% in eluent
[21] = sodium phosphate buffer 10 mM pH 7.0, 92.5% in eluent

Compound	Kd at 16 h, 5 µM [6] [µM]	Stability constant (log K), HSA [7]	Bound percentage (b%) ([8]; ammonium acetate buffer) [%]	Bound percentage (b%) ([8]; ammonium bicarbonate buffer) [%]	retention factor (k) [8, 10]	retention factor (k) [8, 11]	retention factor (k) [8, 12]	retention factor (k) [8, 13]	retention factor (k) [8, 14]	retention factor (k) [8, 15]	retention factor (k) [8, 16]	retention factor (k) [8, 17]	retention factor (k) [8, 18]	retention factor (k) [8, 19]	retention factor (k) [8, 20]	retention factor (k) [8, 21]	Bound percentage (b%) ([8]; sodium phosphate buffer) [%]	Standard enthalpy (ΔH) of binding [9]	Standard entropy (ΔS) of binding [9] [cal K^–1 mol^–1]	Standard Gibbs free energy (ΔG) of binding [9]	also measured
CCOc1cc([C@@H](CS(C)(=O)=O)N2C(=O)c3cccc(NC(C)=O)c3C2=O)ccc1OC [APR, Apremilast]	–	–	–	–	–	–	–	–	–	–	–	–	–	–	–	–	–	–	–	–	average percentage bound to plasma proteins [1]: 90.6%; average percentage bound to plasma proteins [2]: 88.6%; average percentage bound to plasma proteins [3]: 68.3%; average percentage bound to plasma proteins [4]: 84.3%; average percentage bound to plasma proteins [5]: 80.9%
CCOc1cc([C@H](CS(C)(=O)=O)N2C(=O)c3cccc(NC(C)=O)c3C2=O)ccc1OC [R-APR, apremilast]	2.29	3.81 ± 0.05	98.37	99.19	3.99 ± 0.02	0.33 ± 0.01	0.90 ± 0.01	1.51 ± 0.03	3.29 ± 0.02	0.32 ± 0.01	0.94 ± 0.01	1.62 ± 0.01	3.59 ± 0.02	0.34 ± 0.01	0.98 ± 0.01	1.69 ± 0.01	99.31	–3.40 ± 0.26 kcal mol^–1	13.7 ± 1.5	–7.48 ± 0.18 kcal mol^–1	–
CCOc1cc([C@@H](CS(C)(=O)=O)N2C(=O)c3cccc(NC(C)=O)c3C2=O)ccc1OC [S-APR, apremilast]	1.7	4.02 ± 0.08	99.01	99.54	5.05 ± 0.03	0.33 ± 0.01	0.90 ± 0.01	1.72 ± 0.03	4.07 ± 0.02	0.32 ± 0.01	0.94 ± 0.01	1.89 ± 0.01	4.44 ± 0.02	0.34 ± 0.01	0.98 ± 0.01	2.00 ± 0.01	99.63	–4.80 ± 0.27 kcal mol^–1	9.3 ± 1.3	–7.57 ± 0.12 kcal mol^–1	–
